Results as given in patent US6093714A, “Tricyclic benzazepine compounds” (priority 1995, dated 2000).
Counter-ions that a name gives are not always drawn. Like-named read-outs stand apart in the source and are kept apart here.

Columns and labels:
[1] = system: intraperitoneal cells; experiment: Histamine release reaction inhibition test (rat intraperitoneal cells, DNP-As antigen); type: cell-based, Wistar male rat; conditions: 10^-5 to 10^-10 M test compound, DNP-As stimulated intraperitoneal cells, 10^5 cells/ml, read-out: IC50 (dose of the test compound required for inhibiting the histamine release reaction by 50%)
Protocol: Histamine release reaction inhibition test
(1) Preparation of antiserum
Rat anti-dinitrophenylated ascaris protein (hereinafter referred to as "DNP-As") serum was prepared according to the method established by Tada et al. (Tada, T. and Okumura, K., J. Immun. 106(4), 1971). Specifically, 1010 organisms of Bordetella pertussis and 1 mg of DNP-As were intramuscularly administered to the foot pad of the limbs of Brown norway male rats weighing 200 g, and, five days after the administration, 0.5 mg of DNP-As was intramuscularly administered to the back. Three days after that, blood was collected to prepare an antiserum. The titer of the antiserum was determined by using a 48-hr passive cutaneous anaphylaxis reaction using a rat and found to be 1:1000 to 1:2000.
(2) Induction of histamine release reaction and release reaction inhibitory activity
The above serum was diluted four times with physiological brine, and 1 ml of the diluted serum was intraperitoneally administered to a Wistar male rat. Two days after the administration, the abdominal cavity was washed with phosphate buffer, and intraperitoneal cells were collected. The cells were adjusted to 10^5 cells/ml and stimulated with 1 pg/ml DNP-As, and the amount of the histamine released on the supernatant was measured by the method established by Shore et al (Shore, P. A., Burkhalter, A. H. and Chon Jr. V. H. J. Pharm. Exp. Ther., 127 , 182-186 (1959)).
The amount of the released histamine treated with 10^-5 to 10^-10 M test compound was compared with that of non-treated group. The dose of the test compound required for inhibiting the histamine release reaction by 50% (IC50) was calculated based on the percentage inhibition. IC50 of sodium cromoglicate was used as a control.

[2] = system: allergic foot-pad edema reaction; experiment: Immediate and late phase allergic response inhibition test (allergic foot-pad edema reaction); type: in vivo, Wister male rats; conditions: Rattus norvegicus; for inhibition in vivo at 20 mg/kg: po, 20 mg/kg orally, 10 min before induction
Protocol: Immediate and late phase allergic response inhibition test
Wister male rats weighing of 200 g were provided. 1010 organisms of Bordetella pertussis and 1 mg of dinitrophenylated ovalbumin (hereinafter abbreviated to "DNP-OA") were intramuscularly administered into the foot pad of the limbs of the rats except for the right hind leg. Further, ten days after the administration, 5 pg/site DNP-OA was subcutaneously administered to the right hind leg to induce allergic foot-pad edema reaction. The inhibitory activity of the test compounds was determined in such a manner that the volume of edema 30 min after the induction of the allergic reaction was regarded as an immediate phase allergic response and the volume of edema 8 hr after the induction of the allergic reaction was regarded as a late phase allergic response. Each test compound was dissolved or suspended in a 0.25% Tween 80 solution, and the solution or suspension was orally administered at a dose of 20 mg/kg 10 min before the induction of the allergic reaction.
Only the 0.25% Tween 80 solution was administered to the control group of rats not treated with any test compound, and 100 mg/kg sodium cromoglicate was subcutaneously or orally administered to the positive control group of rats.
The percentage inhibition of the allergic foot-pad edema reaction was determined by the following equation.
Percentage inhibition of allergic foot-pad edema reaction=(A-B)/A×100
wherein A: average edema volume for the non-treated control group of rats; and
B: average edema volume for the group of rats with the test compound administered.

[3] = cited from earlier work
[4] = 0.5 h, edema 30 min after induction, read-out: Inhibition (%) Immediate phase response
[5] = edema 8 hr after induction, read-out: Inhibition (%) Late phase response

Structure (SMILES)	IC50 [1] [nM]	inhibition in vivo at 20 mg/kg [2, 4] [%]	inhibition in vivo at 20 mg/kg [2, 5] [%]	oral absorption [3]	inhibition in vivo at 100 mg/kg ([2]; 0.5 h, oral administration, edema 30 min after induction, read-out: Inhibition (%) Immediate phase response) [%]	inhibition in vivo at 100 mg/kg ([2]; sc, 0.5 h, subcutaneous administration, edema 30 min after induction, read-out: Inhibition (%) Immediate phase response) [%]	inhibition in vivo at 100 mg/kg ([2]; sc, subcutaneous administration, edema 8 hr after induction, read-out: Inhibition (%) Late phase response) [%]	inhibition in vivo at 100 mg/kg ([2]; oral administration, edema 8 hr after induction, read-out: Inhibition (%) Late phase response) [%]
O=c1[nH]c2cc(/C=C/c3ccncc3)ccc2c(=O)c2[nH]nnc12 [Example 10, 4(5H),10-Dioxo-7-(2-(4-pyridyl)-(E)-ethenyl)-1H-1,2,3-triazolo[4,5-c][1]benzazepine trifluoroacetate]	2.4	44	59	–	–	–	–	–
COc1cc2[nH]c(=O)c3nn[nH]c3c(=O)c2cc1OC(C)C [Example 23, 8-Isopropoxy-7-methoxy-4(5H),10-dioxo-1H-1,2,3-triazolo[4,5-c][1]benzazepine]	2.4	71	56	–	–	–	–	–
O=C(Nc1ccc2c(=O)c3[nH]nnc3c(=O)[nH]c2c1)c1ccc(OCCCCc2ccccc2)cc1 [Example 22, 4(5H),10-Dioxo-7-(4-phenylbutoxybenzoylamino)-1H-1,2,3-triazolo[4,5-c][1]benzazepine]	8.1	40	41	–	–	–	–	–
O=c1[nH]c2cc(OCCCN3CCOCC3)ccc2c(=O)c2[nH]nnc12 [Example 12, 7-(3-Morpholinopropoxy)-4(5H),10-dioxo-1H-1,2,3-triazolo[4,5-c][1]benzazepine trifluoroacetate]	3.6	46	42	–	–	–	–	–
O=C(COc1ccc2c(=O)c3[nH]nnc3c(=O)[nH]c2c1)N(Cc1ccccn1)Cc1ccccn1 [Example 18, 7-(N,N-Bis(2-pyridylmethyl)carbamoylmethyloxy)-4(5H),10-dioxo-1H-1,2,3-triazolo[4,5-c][1]benzazepine ditrifluoroacetate]	6.2	40	5	–	–	–	–	–
Cc1ccc(C(=O)Oc2ccc3c(=O)c4[nH]nnc4c(=O)[nH]c3c2)cc1 [Example 17, 4(5H),10-Dioxo-7-(4-toluoyloxy)-1H-1,2,3-triazolo[4,5-c][1]benzazepine]	4.1	44	24	–	–	–	–	–
O=C(O)c1cc(=O)c2c(OCC(O)COc3cccc4oc(C(=O)O)cc(=O)c34)cccc2o1 [Sodium cromoglicate, reference compound]	1800	–	–	poor oral absorption	16	75	53	20
CC(=O)Nc1ccc2c(=O)c3[nH]nnc3c(=O)[nH]c2c1 [Example 21, 7-Acetylamino-4(5H),10-dioxo-1H-1,2,3-triazolo[4,5-c][1]benzazepine]	4.6	43	26	–	–	–	–	–
